Data reported in ChEMBL document CHEMBL1782024, “Chisomicines A-C, limonoids from Chisocheton ceramicus” (J Nat Prod, 2011).
pIC50: −log10 of the molar value. The source made the active and inactive calls. The rule behind the calls is not given here.

Experiments:
J774.1 = assay: Inhibition of LPS-induced nitric oxide production in mouse J774.1 cells after 24 hrs by griess assay; format: functional, cell-based
[1] = Cytotoxicity against mouse J774.1 cells after 2 hrs by MTT assay; format: cell-based; details: j774.1, 2 h

## C/C=C(\C)C(=O)O[C@@H]1C2[C@H]3O[C@]34[C@@H]3CC(=O)O[C@@H](c5ccoc5)[C@]3(C)CC[C@@H]4[C@@]3(C)[C@@H](CC(=O)OC)[C@@]1(C)C[C@@]23O (some centres not stated)
J774.1
  inhibition: inactive

## C/C=C(\C)C(=O)O[C@@H]1C2C=C3[C@H](CC[C@@]4(C)[C@H](c5ccoc5)OC(=O)C[C@@]34O)[C@@]3(C)[C@@H](CC(=O)OC)[C@@]1(C)CO[C@@]23O
J774.1
  inhibition: inactive

## CNC(=N)NCCC[C@H](N)C(=O)O [TILARGININE]
J774.1; J774.1, 24 h
  IC50: 13.8 µg/mL

## COC(=O)C[C@H]1C(C)(C)[C@@H]2O[C@@]34C[C@@H]2C(=O)[C@]1(C)[C@H]3CC[C@]1(C)C4CC(=O)O[C@@H]1c1ccoc1 (some centres not stated)
J774.1
  inhibition: inactive

## C/C=C(\C)C(=O)O[C@@H]1/C=C\C2=C3CC(=O)O[C@@H](c4ccoc4)[C@]3(C)CC[C@@H]2[C@@]2(C)C(=O)C[C@]1(C)[C@@H]2CC(=O)OC [CHISOMICINE A]
[1]
  Activity: Toxic
J774.1; J774.1, 24 h
  pIC50: 4.69

## COC(=O)C[C@H]1C(C)(C)[C@H](O)[C@@H]2CC3=C4CC(=O)O[C@@H](c5ccoc5)[C@]4(C)CC[C@@H]3[C@@]1(C)C2=O
J774.1
  inhibition: inactive
